Measurements: PMC5951806, “Rapid labelling and covalent inhibition of intracellular native proteins using ligand-directed N-acyl-N-alkyl sulfonamide” (Nature Communications, 2018)

Key:
Assay in all cases: TMT LC-MSMS of 11-labelled proteins
Format in all cases: cell-based
[1] = biological target: Actin, cytoplasmic 1 (ACTB) (Homo sapiens, UniProt P60709)
Excerpt: (§1) The labelled proteins were enriched by immunoprecipitation with an anti-fluorescein antibody and tryptically digested in gel. Digested peptides were modified with Light- (L-), Medium- (M-), or Heavy- (H-) TMT reagent for samples treated with 11, 11 with PU-H71 (as competitive condition), or DMSO (vehicle), respectively, and mixed in a 1:1:1 ratio for LC-MSMS analysis. We performed three experimental replicates, in which proteins detected and quantified at least twice were selected as identified proteins. According to the related approach of Cravatt et al[44], the proteins having L/H (11/DMSO) ratios >5 were defined as 11-labelled proteins. […] On the basis of these criteria, we identified 6 proteins that react with 11, including three ligand-specific targets (Hsp90α (HSP90AA1), Hsp90β (HSP90AB1), and Grp94 (HSP90B1)) and three off-targets (Trifunctional enzyme subunit α (HADHA), Tubulin-α (TUBA1B), and ADP/ATP translocase 3 (SLC25A6)) (Fig. 5d, e and Supplementary Data 1). […] Grp94, a HSP90 isomer, was previously reported to be a PU-H71 specific target. TRAP-1, another Hsp90 isomer that can bind PU-H71, on the other hand, was not identified as 11-target by our criteria.
(§2) SKBR3 human breast cancer cells (2.0 × 10^6 cells) were seeded on a 10 cm dish and cultured for 3 days in McCoy’s 5A in a 5% CO2 humidified chamber at 37 °C. […] As competitive experiments, the labelling was conducted in the presence of PU-H71 (10 µM). After labelling, the cells were washed twice with PBS, and lysed with RIPA buffer. […] The supernatant was mixed with chilled acetone and incubated overnight at −80 °C. The protein precipitates were solubilized by sonication in 1 mL of RIPA buffer containing 1% SDS, and then 10-fold diluted with RIPA buffer to reduce SDS concentration to c.a. 0.1%. The protein solution (containing 1 mg of protein) was mixed with Protein G Sepharose 4 Fast Flow (GE Healthcare) and rotated at 4 °C for 1 h. After removal of the beads, the remaining supernatant was mixed with anti-fluorescein antibody (Abcam, ab19491, 7:10000) and rotated at 4 °C for 1 h, followed by addition of fresh Protein G Sepharose 4 Fast Flow and further incubation at 4 °C for 4 h. The beads were washed five times with RIPA buffer and once with PBS. Proteins were eluted from the beads by addition of 2 × sample buffer containing 100 mM DTT and boiling at 95 °C for 5 min. The samples were subjected to a 7.5% SDS–PAGE gel (Mini-PROTEAN TGX Gels, BioRad), and electrophoresed as the migration distance of dye front is about 10 mm. Each lane was excised (height, 10 mm), and treated with a 47.5% methanol / 47.5% pure water / 5% acetic acid for 20 min, a 50% methanol / 50% pure water for 10 min, and in pure water for 10 min. The gel pieces were dehydrated with 100% acetonitrile, and then swelled with 200 μL of 100 mM TEAB (triethylamine bicarbonate) buffer containing 10 mM DTT and heated at 56 °C for 30 min. The solutions were replaced with 200 µL of 100 mM TEAB buffer containing 55 mM iodoacetamide and incubated for 45 min in the dark. The gel pieces were washed with 100 mM TEAB buffer and dehydrated in acetonitrile. This step was repeated once. The gels were reswelled in 100 mM TEAB buffer containing 10 ng/μL Sequencing Grade Trypsin (Promega) and incubated overnight at 37 °C. To the gels, 50 μL of an extraction solution (50% acetonitrile, 0.1% TFA) was added. After 10 min incubation, the supernatants were collected to new tubes, and this process was repeated twice. Extracted peptides were dried in vacuo and reconstituted with 25 μL of 100 mM TEAB buffer.

[2] = biological target: Multidrug resistance-associated protein 5 (ABCC5) (Homo sapiens, UniProt O15440)
Excerpt: as §1, §2

[3] = biological target: Transferrin receptor protein 1 (TFRC) (Homo sapiens, UniProt P02786)
Excerpt: as §1, §2

[4] = sheet Exp1, SKBR3 cells, 11 0.5 µM 3 h vs DMSO
[5] = sheet Exp1, SKBR3 cells, 11 0.5 µM 3 h vs with PU-H71 10 µM
[6] = sheet Merged, SKBR3 cells, 11 0.5 µM 3 h vs DMSO
[7] = sheet Merged, SKBR3 cells, 11 0.5 µM 3 h vs with PU-H71 10 µM

Multidrug resistance-associated protein 5 (ABCC5), sequence (O15440 whole entry): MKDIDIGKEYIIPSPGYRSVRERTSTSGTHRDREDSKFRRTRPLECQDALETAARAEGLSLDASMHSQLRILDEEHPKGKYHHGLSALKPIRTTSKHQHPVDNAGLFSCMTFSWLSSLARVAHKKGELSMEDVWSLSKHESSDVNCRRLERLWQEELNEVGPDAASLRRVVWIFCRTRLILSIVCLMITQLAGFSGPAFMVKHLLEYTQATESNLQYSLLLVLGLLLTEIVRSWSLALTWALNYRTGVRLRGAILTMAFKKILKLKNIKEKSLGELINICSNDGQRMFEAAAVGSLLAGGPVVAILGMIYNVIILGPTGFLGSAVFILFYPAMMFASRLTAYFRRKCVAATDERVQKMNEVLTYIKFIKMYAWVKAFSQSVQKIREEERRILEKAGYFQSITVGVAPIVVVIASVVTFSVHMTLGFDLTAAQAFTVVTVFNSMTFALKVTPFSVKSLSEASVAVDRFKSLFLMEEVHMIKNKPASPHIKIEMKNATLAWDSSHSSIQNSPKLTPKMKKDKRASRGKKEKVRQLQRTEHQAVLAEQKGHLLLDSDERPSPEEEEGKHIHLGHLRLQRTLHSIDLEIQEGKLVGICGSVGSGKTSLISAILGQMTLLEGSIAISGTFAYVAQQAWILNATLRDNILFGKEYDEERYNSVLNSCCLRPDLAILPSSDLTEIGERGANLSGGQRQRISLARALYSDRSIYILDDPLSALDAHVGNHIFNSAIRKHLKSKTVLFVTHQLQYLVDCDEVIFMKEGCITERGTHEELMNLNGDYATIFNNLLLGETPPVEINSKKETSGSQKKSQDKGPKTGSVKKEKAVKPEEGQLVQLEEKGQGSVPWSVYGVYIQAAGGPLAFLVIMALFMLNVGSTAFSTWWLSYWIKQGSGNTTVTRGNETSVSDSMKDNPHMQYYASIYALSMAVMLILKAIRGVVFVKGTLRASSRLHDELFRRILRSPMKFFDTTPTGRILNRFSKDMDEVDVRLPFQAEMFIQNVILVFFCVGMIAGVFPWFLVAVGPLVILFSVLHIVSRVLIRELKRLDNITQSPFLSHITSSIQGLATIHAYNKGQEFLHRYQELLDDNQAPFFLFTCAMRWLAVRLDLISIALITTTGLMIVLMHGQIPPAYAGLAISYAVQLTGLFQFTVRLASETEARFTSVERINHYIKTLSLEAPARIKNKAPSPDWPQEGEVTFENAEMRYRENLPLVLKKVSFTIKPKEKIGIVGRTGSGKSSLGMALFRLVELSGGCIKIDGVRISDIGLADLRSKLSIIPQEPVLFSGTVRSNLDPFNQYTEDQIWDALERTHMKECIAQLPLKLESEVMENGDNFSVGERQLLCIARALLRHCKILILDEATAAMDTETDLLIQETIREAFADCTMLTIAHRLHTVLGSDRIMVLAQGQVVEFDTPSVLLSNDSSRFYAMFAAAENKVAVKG
Transferrin receptor protein 1 (TFRC), sequence (P02786 whole entry): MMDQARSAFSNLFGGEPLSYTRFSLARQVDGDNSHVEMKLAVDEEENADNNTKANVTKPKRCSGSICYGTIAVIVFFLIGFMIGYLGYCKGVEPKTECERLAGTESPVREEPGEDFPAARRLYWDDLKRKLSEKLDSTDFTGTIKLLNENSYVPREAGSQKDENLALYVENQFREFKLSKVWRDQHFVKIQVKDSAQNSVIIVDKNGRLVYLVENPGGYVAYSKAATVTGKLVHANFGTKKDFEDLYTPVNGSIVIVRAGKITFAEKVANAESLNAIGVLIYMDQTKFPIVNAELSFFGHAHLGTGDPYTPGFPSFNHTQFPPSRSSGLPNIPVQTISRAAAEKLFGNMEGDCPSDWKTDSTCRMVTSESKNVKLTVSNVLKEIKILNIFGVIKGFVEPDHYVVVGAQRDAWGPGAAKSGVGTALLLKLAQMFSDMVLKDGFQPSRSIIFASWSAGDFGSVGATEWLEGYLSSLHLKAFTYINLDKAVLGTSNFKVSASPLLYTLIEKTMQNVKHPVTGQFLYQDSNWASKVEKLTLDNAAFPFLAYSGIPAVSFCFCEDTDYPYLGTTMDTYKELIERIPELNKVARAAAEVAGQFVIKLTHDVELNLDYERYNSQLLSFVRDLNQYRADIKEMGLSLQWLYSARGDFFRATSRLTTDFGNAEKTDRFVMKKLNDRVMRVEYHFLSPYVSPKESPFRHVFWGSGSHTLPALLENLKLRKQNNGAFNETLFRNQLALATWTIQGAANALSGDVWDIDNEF

Abundance Ratio: (11) / (11 with PU-H71) ([1]; Exp3, ACTB): 0.843 | Abundance Ratio: (11) / (DMSO) ([1]; Exp3, ACTB): 2.666 | Abundances (Grouped): 11 ([1]; Exp3, ACTB): 445.7 | Abundances (Grouped): 11 with PU-H71 ([1]; Exp3, ACTB): 528.9 | Abundance Ratio: (11) / (DMSO) [1, 4]: 3.266 | Abundance Ratio: (11) / (11 with PU-H71) [1, 5]: 0.822 | Abundance Ratio: (11) / (11 with PU-H71) ([1]; sheet Exp2, ACTB): 0.825 | Abundance Ratio: (11) / (DMSO) ([1]; sheet Exp2, ACTB): 3.623 | Abundances (Grouped): 11 ([1]; sheet Exp2, ACTB): 493.5 | Abundances (Grouped): 11 with PU-H71 ([1]; sheet Exp2, ACTB): 598.3 | Abundance Ratio: (11) / (DMSO) [1, 6]: 3.272 | Abundance Ratio: (11) / (11 with PU-H71) [1, 7]: 0.843 | Abundance Ratio: (11) / (11 with PU-H71) ([2]; Exp3, ABCC5): 0.868 | Abundance Ratio: (11) / (DMSO) ([2]; Exp3, ABCC5): 4.007 | Abundances (Grouped): 11 ([2]; Exp3, ABCC5): 227.2 | Abundances (Grouped): 11 with PU-H71 ([2]; Exp3, ABCC5): 261.9 | Abundance Ratio: (11) / (DMSO) [2, 4]: 1.935 | Abundance Ratio: (11) / (11 with PU-H71) [2, 5]: 1.002 | Abundance Ratio: (11) / (11 with PU-H71) ([2]; sheet Exp2, ABCC5): 0.947 | Abundance Ratio: (11) / (DMSO) ([2]; sheet Exp2, ABCC5): 2.92 | Abundances (Grouped): 11 ([2]; sheet Exp2, ABCC5): 189.2 | Abundances (Grouped): 11 with PU-H71 ([2]; sheet Exp2, ABCC5): 199.7 | Abundance Ratio: (11) / (DMSO) [2, 6]: 3.871 | Abundance Ratio: (11) / (11 with PU-H71) [2, 7]: 0.868 | Abundance Ratio: (11) / (DMSO) [3, 4]: 1.5 | Abundance Ratio: (11) / (11 with PU-H71) [3, 5]: 0.917 | Abundance Ratio: (11) / (11 with PU-H71) ([3]; sheet Exp2, TFRC): 1.036 | Abundance Ratio: (11) / (DMSO) ([3]; sheet Exp2, TFRC): 2.96 | Abundances (Grouped): 11 ([3]; sheet Exp2, TFRC): 95.6 | Abundances (Grouped): 11 with PU-H71 ([3]; sheet Exp2, TFRC, with PU-H71): 92.3 | Abundance Ratio: (11) / (DMSO) [3, 6]: 2.107 | Abundance Ratio: (11) / (11 with PU-H71) [3, 7]: 0.975
Structure (SMILES): CC(=O)Oc1ccc2c(c1)Oc1cc(OC(C)=O)ccc1C21OC(=O)c2cc(C(=O)NCCOCCOCCNC(=O)CCCC(=O)N(CC#N)S(=O)(=O)c3ccc(C(=O)NCCCn4c(Sc5cc6c(cc5I)OCO6)nc5c(N)ncnc54)cc3)ccc21 [compound 11]
